In ChEMBL document CHEMBL4477270, “Design, synthesis, and protein methyltransferase activity of a unique set of constrained amine containing compounds” (Bioorg Med Chem Lett, 2016) one finds Activity and IC50 data, which are given here for 24 compounds.

In assay [1] the target is Protein N-lysine methyltransferase METTL21D (Homo sapiens) (UniProt Q9H867). The assay is described as follows: Inhibition of METTL21D (unknown origin) using biotin-labeled histone substrate assessed as residual activity at 50 uM in presence of [3H-Me]SAM by scintillation proximity assay relative to control.
Chain of Protein N-lysine methyltransferase METTL21D (Homo sapiens) (Q9H867 whole entry): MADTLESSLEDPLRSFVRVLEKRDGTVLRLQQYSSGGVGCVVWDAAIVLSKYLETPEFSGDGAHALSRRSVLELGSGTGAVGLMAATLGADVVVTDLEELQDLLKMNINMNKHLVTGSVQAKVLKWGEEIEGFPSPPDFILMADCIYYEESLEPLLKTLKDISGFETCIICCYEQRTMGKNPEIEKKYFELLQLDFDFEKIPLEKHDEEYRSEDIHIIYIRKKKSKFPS
The target of assay [2] is Histone-lysine N-methyltransferase EZH2 (Homo sapiens) (UniProt Q15910). The assay is described as follows: Inhibition of EZH2 (unknown origin) using biotin-labeled histone substrate assessed as residual activity at 50 uM in presence of [3H-Me]SAM by scintillation proximity assay relative to control. Background: SPA uses beads or plates that emit light when radiolabelled molecules are held near them.
Chain of Histone-lysine N-methyltransferase EZH2 (Homo sapiens) (Q15910 whole entry, looked up): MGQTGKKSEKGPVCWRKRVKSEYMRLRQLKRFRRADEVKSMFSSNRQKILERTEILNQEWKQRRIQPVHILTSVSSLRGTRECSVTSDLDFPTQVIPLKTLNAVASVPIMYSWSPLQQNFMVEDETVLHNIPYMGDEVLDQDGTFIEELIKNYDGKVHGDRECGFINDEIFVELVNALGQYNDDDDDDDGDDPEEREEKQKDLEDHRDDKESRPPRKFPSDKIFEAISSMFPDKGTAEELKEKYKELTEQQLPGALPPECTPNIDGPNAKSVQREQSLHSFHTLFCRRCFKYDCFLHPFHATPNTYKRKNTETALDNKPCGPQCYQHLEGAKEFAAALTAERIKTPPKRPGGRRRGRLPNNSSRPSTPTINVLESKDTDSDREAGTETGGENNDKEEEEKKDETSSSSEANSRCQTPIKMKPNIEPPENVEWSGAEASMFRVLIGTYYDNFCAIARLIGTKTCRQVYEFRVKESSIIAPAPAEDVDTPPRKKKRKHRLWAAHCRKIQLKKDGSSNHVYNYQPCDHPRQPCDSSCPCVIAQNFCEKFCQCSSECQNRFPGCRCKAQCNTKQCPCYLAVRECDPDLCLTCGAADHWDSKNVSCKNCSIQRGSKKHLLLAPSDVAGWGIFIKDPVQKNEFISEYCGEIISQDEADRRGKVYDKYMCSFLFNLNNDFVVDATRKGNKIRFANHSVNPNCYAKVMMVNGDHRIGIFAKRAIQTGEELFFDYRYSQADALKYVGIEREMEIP

In assay [3] the target is Histone-lysine N-methyltransferase PRDM9 (Homo sapiens) (UniProt Q9NQV7). The assay is described as follows: Inhibition of PRDM9 (unknown origin) using biotin-labeled histone substrate assessed as residual activity at 50 uM in presence of [3H-Me]SAM by scintillation proximity assay relative to control.
Chain of Histone-lysine N-methyltransferase PRDM9 (Homo sapiens) (Q9NQV7 whole entry): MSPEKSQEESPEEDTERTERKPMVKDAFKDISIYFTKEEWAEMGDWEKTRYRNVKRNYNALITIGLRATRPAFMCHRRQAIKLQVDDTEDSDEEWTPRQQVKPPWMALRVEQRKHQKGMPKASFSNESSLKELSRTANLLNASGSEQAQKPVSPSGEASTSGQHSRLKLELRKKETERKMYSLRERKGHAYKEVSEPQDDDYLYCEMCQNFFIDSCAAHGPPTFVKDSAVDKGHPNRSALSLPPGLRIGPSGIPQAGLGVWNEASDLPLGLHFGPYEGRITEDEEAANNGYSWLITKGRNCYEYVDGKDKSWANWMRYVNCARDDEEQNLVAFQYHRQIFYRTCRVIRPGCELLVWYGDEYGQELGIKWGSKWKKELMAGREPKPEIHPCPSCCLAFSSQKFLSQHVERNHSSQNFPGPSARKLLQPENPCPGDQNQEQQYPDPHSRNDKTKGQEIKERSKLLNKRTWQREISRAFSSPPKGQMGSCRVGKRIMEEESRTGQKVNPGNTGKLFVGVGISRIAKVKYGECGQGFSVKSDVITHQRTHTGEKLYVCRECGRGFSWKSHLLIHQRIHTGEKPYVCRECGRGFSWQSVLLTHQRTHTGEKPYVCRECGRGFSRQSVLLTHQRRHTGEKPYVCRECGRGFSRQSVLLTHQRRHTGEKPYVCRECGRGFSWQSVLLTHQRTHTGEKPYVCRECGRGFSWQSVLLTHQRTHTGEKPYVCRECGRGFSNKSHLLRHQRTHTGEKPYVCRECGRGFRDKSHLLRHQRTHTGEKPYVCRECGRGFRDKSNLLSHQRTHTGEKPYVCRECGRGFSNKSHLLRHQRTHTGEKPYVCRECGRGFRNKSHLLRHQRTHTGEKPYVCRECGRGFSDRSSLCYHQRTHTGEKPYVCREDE
The target in assay [4] is T1, Histone-lysine N-methyltransferase NSD2 (Homo sapiens) (UniProt O96028).
T1 sequence (whole entry): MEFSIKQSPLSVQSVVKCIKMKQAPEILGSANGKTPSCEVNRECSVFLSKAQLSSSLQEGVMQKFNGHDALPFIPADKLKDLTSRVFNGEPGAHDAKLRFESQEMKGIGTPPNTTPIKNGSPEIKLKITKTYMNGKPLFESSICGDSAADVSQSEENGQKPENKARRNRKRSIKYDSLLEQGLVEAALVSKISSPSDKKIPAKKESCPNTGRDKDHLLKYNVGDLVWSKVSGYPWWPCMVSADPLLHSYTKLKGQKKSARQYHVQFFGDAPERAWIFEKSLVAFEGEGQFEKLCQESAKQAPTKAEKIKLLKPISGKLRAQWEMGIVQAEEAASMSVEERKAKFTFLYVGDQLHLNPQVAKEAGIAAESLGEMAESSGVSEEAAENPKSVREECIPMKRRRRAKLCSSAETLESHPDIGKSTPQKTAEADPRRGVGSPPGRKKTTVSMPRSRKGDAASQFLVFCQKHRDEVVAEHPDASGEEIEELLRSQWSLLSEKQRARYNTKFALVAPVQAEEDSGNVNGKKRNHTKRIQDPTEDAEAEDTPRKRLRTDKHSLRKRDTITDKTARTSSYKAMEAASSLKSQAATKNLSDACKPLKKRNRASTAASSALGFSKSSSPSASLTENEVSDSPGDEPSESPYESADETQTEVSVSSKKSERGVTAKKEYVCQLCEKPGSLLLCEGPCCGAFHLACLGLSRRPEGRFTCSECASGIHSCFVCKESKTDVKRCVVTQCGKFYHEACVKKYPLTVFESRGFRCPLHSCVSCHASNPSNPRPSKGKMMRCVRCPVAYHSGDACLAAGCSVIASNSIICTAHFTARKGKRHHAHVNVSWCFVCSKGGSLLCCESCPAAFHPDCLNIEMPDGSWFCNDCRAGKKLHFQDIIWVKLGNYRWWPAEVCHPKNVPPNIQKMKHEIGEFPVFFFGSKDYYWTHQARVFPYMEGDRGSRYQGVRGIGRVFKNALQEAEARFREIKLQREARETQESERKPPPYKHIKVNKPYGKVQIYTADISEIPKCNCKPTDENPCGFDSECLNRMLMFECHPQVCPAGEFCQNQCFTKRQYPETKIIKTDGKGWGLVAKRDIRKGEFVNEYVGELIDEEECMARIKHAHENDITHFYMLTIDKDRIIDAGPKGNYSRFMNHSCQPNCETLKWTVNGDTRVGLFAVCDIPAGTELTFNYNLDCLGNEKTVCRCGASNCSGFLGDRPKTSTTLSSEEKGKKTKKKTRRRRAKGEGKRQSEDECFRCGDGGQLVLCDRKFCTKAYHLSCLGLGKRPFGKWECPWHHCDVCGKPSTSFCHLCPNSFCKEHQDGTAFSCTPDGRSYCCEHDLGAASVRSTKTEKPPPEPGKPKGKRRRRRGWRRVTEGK
The assay is described as follows: Inhibition of NSD2 (unknown origin) using biotin-labeled histone substrate assessed as residual activity at 50 uM in presence of [3H-Me]SAM by scintillation proximity assay relative to control.

Assay [5] addresses T2, N-lysine methyltransferase KMT5A (Homo sapiens, UniProt Q9NQR1).
T2 sequence (Q9NQR1 whole entry): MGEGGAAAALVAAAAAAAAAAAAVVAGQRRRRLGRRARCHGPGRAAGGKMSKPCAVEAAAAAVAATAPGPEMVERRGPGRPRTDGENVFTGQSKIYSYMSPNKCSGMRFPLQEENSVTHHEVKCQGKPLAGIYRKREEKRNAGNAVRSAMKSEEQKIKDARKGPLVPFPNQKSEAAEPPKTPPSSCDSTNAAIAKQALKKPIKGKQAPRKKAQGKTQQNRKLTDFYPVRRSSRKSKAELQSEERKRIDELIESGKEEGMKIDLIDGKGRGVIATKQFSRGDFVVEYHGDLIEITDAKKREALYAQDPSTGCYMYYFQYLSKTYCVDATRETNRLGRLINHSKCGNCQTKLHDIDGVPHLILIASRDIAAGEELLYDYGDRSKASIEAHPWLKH
The assay is described as follows: Inhibition of SETD8 (unknown origin) using biotin-labeled histone H4 (1 to 24 residues) as substrate in presence of [3H-Me]SAM by scintillation proximity assay.

Assay [6] concerns the target T3, N-lysine methyltransferase KMT5A (Homo sapiens) (UniProt Q9NQR1).
T3 sequence (whole entry): T2 sequence (Q9NQR1 whole entry)
The assay is described as follows: Binding affinity to SETD8 (unknown origin) in presence of S-adenosyl-L-homocysteine by isothermal titration calorimetry.

Assay [7] has as its target T3, N-lysine methyltransferase KMT5A (Homo sapiens). The assay is described as follows: Binding affinity to SETD8 (unknown origin) in absence of S-adenosyl-L-homocysteine by isothermal titration calorimetry. (Isothermal titration calorimetry measures the heat released or taken up as one component is titrated into another.)

The source made the active and inactive calls. The rule behind the calls is not given here.

Regarding `CN1CCC2(CC1)CCN(C(=O)c1cccc(Br)c1)CC2`, the Activity in assay [1] is 105%; in assay [2], 87%; in assay [3] it was 106%; in assay [4], 99%.

For `CN1CCCC2(CCCN2C(=O)c2cccc(Br)c2)C1` (stereo unspecified), the Activity was 104% in assay [1], 90% in assay [2], 94% in assay [3] and 105% in assay [4].

Regarding `CN1CC[C@H]2CN(C(=O)c3cccc(Br)c3)C[C@H]21`, the Activity amounted to 105% in assay [1], 87% in assay [2], 106% in assay [3] and 102% in assay [4].

As to `O=C(c1cccc(Br)c1)N1CCC2CNCC2C1` (stereo unspecified), the Activity was 113% in assay [1], 98% in assay [2], 108% in assay [3] and 97% in assay [4].

With `CN1CCCCC12CCN(C(=O)c1cccc(Br)c1)CC2`, the Activity in assay [1] was 99%; in assay [2] it was 88%; in assay [3] it was 105%; in assay [4] it was 103%. In addition, the IC50 in assay [5] is over 200 µM.

Turning to `O=C(c1cccc(Br)c1)N1CCC2(CCNCC2)CC1`, the Activity came out at 101% in assay [1], 88% in assay [2], 105% in assay [3] and 103% in assay [4].

For `CN1CCCC2(CCCN(C(=O)c3cccc(Br)c3)C2)C1` (stereo unspecified), the Activity in assay [1] was found to be 99%; in assay [2] it was 90%; in assay [3], 93%; in assay [4], 101%.

For the compound `CN1CCCC12CCN(C(=O)c1cccc(Br)c1)CC2`, the Activity in assay [1] stood at 120%; in assay [2], 95%; in assay [3] it was 107%; in assay [4] it was 99%.

Take `O=C(c1cccc(Br)c1)N1CC[C@H]2NCC[C@H]2C1`: the Activity in assay [1] was determined as 103%; in assay [2], 98%; in assay [3], 109%; in assay [4], 97%.

As for `CN1CCC2(CCCN(C(=O)c3cccc(Br)c3)C2)C1` (stereo unspecified), the Activity in assay [1] amounted to 98%; in assay [2], 97%; in assay [3], 103%; in assay [4], 105%.

Turning to `O=C(c1cccc(Br)c1)N1C[C@@H]2CCN[C@@H]2C1`, the Activity in assay [1] stood at 98%; in assay [2], 85%; in assay [3], 107%; in assay [4], 94%.

Take `O=C(c1cccc(Br)c1)N1C[C@@H]2CC3CCCN3[C@@H]2C1` (stereo partly specified): the Activity was 106% in assay [1], 90% in assay [2], 97% in assay [3] and 101% in assay [4].

For `CN1CCC[C@@H]2CN(C(=O)c3cccc(Br)c3)C[C@@H]21`, the result in assay [6] and in assay [7] was inactive. Also, the Activity in assay [1] was determined as 100%; in assay [2] it was 90%; in assay [3], 104%; in assay [4], 95%. In assay [5], the IC50 stood at 39 µM.

On to `O=C(c1cccc(Br)c1)N1C[C@@H]2CC3CCCCN3[C@@H]2C1` (stereo partly specified), for which the Activity amounted to 106% in assay [1], 92% in assay [2], 107% in assay [3] and 96% in assay [4].

With `O=C(c1cccc(Br)c1)N1CCCC2(CCNCC2)C1`, the Activity was 106% in assay [1], 88% in assay [2], 98% in assay [3] and 104% in assay [4].

Consider `CN1CCCC12CCCN(C(=O)c1cccc(Br)c1)C2` (stereo unspecified), for which the Activity was 99% in assay [1], 88% in assay [2], 108% in assay [3] and 99% in assay [4].

For the compound `CN1C[C@H]2CCCN(C(=O)c3cccc(Br)c3)[C@H]2C1`, the Activity is 102% in assay [1], 91% in assay [2], 103% in assay [3] and 96% in assay [4].

Turning to `C[N+]1(C)CCCCC12CCN(C(=O)c1cccc(Br)c1)CC2`, the Activity in assay [1] was determined as 102%; in assay [2] it was 90%; in assay [3], 107%; in assay [4] it was 99%. The IC50 in assay [5] was over 200 µM.

On to `O=C(c1cccc(Br)c1)N1CCC[C@@H]2CNC[C@@H]21`, for which the Activity stood at 106% in assay [1], 94% in assay [2], 102% in assay [3] and 101% in assay [4].

In the case of `CN1CCC2(CCCN2C(=O)c2cccc(Br)c2)CC1`, the Activity in assay [1] was found to be 111%; in assay [2], 93%; in assay [3], 98%; in assay [4], 99%.

Take `O=C(c1cccc(Br)c1)N1CCCC2(CCCCN2)C1` (stereo unspecified): the Activity is 103% in assay [1], 96% in assay [2], 101% in assay [3] and 96% in assay [4].

For `CN1CCCCC12CCCN(C(=O)c1cccc(Br)c1)C2` (stereo unspecified), the Activity is 91% in assay [1], 91% in assay [2], 111% in assay [3] and 101% in assay [4].

Turning to `O=C(c1cccc(Br)c1)N1C[C@H]2CCCN[C@H]2C1`, the Activity in assay [1] was 102%; in assay [2], 103%; in assay [3], 108%; in assay [4], 89%.

Turning to `O=C(c1cccc(Br)c1)N1CC[C@@H]2[C@@H](CC3CCCCN32)C1` (stereo partly specified), the Activity in assay [1] worked out at 106%; in assay [2], 86%; in assay [3] it was 101%; in assay [4], 98%.

One may read the IC50 as the midpoint of a concentration-inhibition curve.
